Measured values reported in patent publication US20250059205A1, “Heterocyclic Compounds and Methods of Use” (AMGEN INC., priority 2021, published 2025).
Blank lines part the entries; values can stand above or below the molecule they belong to.

How the values were obtained:
[1] = target: His-tagged KRAS G12D protein (Homo sapiens, UniProt P01116, G12D); assay: KRAS G12D TR-FRET Assay; format: binding
[2] = target: GDP-bound KRAS protein (aa 1-169), containing both G12D and C118A amino acid substitutions (Homo sapiens, UniProt P01116, C118A/G12D); assay: KRAS G12D Coupled Nucleotide Exchange Assay; format: biochemical; conditions: 2 h compound pre-incubation
Experimental: Following compound pre-incubation, purified SOS protein (aa 564-1049) and GTP (Roche 10106399001) were added to the assay wells and incubated for an additional 30 min. […] The assay plates were then read on a PerkinElmer EnVision Multilabel Reader, using AlphaScreen® technology, and data were analyzed using a 4-parameter logistic model to calculate IC50 values.

[3] = system: Phosphorylation of ERK1/2 in A-427 cells; assay: Phospho-ERK1/2 MSD Assay (A-427 cells); format: cell-based; conditions: Homo sapiens, A-427, 2 h, 2 h treatment, read-out: p-ERK (A427 cells) IC50
Summary of the method: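 ERK1/2 phosphorylation measured by Meso Scale whole-cell lysate assay after A-427 cells were exposed to a titration of compound for 2 h at 37 °C.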

[4] = system: Phosphorylation of ERK1/2 in AsPC-1 cells; assay: Phospho-ERK1/2 MSD Assay (AsPC-1 cells); format: cell-based; conditions: Homo sapiens, ASPC1, 2 h, 2 hours treatment, read-out: p-ERK (AsPC-1 cells) IC50
Summary of the method: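 Read-out: MSD electrochemiluminescent detection of phosphorylated ERK1/2 in whole-cell lysates, fitted to a 4-parameter logistic curve for IC50. Prior to lysis, AsPC-1 cells (25,000 per well) received a 2 h compound dose-response at 37 °C.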

Sequence of GDP-bound KRAS protein (aa 1-169), containing both G12D and C118A amino acid substitutions (P01116 1-169 isoform P01116-2 G12D/C118A): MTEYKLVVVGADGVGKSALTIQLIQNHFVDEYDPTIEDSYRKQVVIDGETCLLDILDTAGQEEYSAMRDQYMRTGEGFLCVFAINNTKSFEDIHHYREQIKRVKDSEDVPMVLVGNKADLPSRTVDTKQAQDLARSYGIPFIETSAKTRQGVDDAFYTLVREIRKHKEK
Sequence of His-tagged KRAS G12D protein (P01116 1-188 isoform P01116-2 G12D): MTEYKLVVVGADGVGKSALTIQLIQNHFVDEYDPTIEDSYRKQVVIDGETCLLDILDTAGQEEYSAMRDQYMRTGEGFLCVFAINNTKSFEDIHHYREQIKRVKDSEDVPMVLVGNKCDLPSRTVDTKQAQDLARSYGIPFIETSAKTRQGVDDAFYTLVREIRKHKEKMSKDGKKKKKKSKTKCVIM

Structure (SMILES): CCc1c(F)ccc2cc(O)cc(-c3ccc4c(N5C[C@H]6COC[C@@H](C5)N6)nc(OC[C@@]56CCCN5C[C@H](F)C6)nc4c3F)c12 [Example 138, 4-(4-((1R,5S)-3-oxa-7,9-diazabicyclo[3.3.1]nonan-7-yl)-8-fluoro-2-(((2R,7aS)-2-fluorotetrahydro-1H-pyrrolizin-7a(5H)-yl)methoxy)quinazolin-7-yl)-5-ethyl-6-fluoronaphthalen-2-ol]
IC50 [1]: 3 nM
Avg 2 h Coupled Exchange IC50 [2]: 4 nM
IC50 [3]: 72 nM
IC50 [4]: 216 nM

IC50 [1]: 5 nM
Avg 2 h Coupled Exchange IC50 [2]: 4 nM
IC50 [3]: 8 nM
IC50 [4]: 44 nM
Structure (SMILES): CCc1c(F)ccc2cc(O)cc(-c3ccc4c(N5C[C@@H]6CC[C@H]5CN6)nc(OC[C@@]56CCCN5C[C@H](F)C6)nc4c3F)c12 [Example 139, 4-(4-((1S,4S)-2,5-diazabicyclo[2.2.2]octan-2-yl)-8-fluoro-2-(((2R,7aS)-2-fluorotetrahydro-1H-pyrrolizin-7a(5H)-yl)methoxy)quinazolin-7-yl)-5-ethyl-6-fluoronaphthalen-2-ol]

IC50 [1]: 2 nM
Avg 2 h Coupled Exchange IC50 [2]: 1 nM
IC50 [3]: 11 nM
IC50 [4]: 70 nM
Structure (SMILES): Oc1cc(-c2ccc3c(N4C[C@@H]5CC[C@H]4CN5)nc(OC[C@@]45CCCN4C[C@H](F)C5)nc3c2F)c2c(F)c(F)ccc2c1 [Example 140, 4-(4-((1S,4S)-2,5-diazabicyclo[2.2.2]octan-2-yl)-8-fluoro-2-(((2R,7aS)-2-fluorotetrahydro-1H-pyrrolizin-7a(5H)-yl)methoxy)quinazolin-7-yl)-5,6-difluoronaphthalen-2-ol]

Structure (SMILES): Oc1cc(-c2ccc3c(N4C[C@H]5CC[C@@H](C4)N5)nc(OC[C@@]45CCCN4C[C@H](F)C5)nc3c2F)c2c(F)cccc2c1 [Example 141, 4-(4-((1R,5S)-3,8-diazabicyclo[3.2.1]octan-3-yl)-8-fluoro-2-(((2R,7aS)-2-fluorotetrahydro-1H-pyrrolizin-7a(5H)-yl)methoxy)quinazolin-7-yl)-5-fluoronaphthalen-2-ol]
IC50 [1]: 2 nM
Avg 2 h Coupled Exchange IC50 [2]: 1 nM
IC50 [3]: 10 nM
IC50 [4]: 93 nM

Structure (SMILES): Oc1cc(-c2ccc3c(N4C[C@H]5CC[C@@H](C4)N5)nc(OC[C@@]45CCCN4C[C@H](F)C5)nc3c2F)c2c(F)c(F)ccc2c1 [Example 142, 4-(4-((1R,5S)-3,8-diazabicyclo[3.2.1]octan-3-yl)-8-fluoro-2-(((2R,7aS)-2-fluorotetrahydro-1H-pyrrolizin-7a(5H)-yl)methoxy)quinazolin-7-yl)-5,6-difluoronaphthalen-2-ol]
IC50 [1]: 2 nM
Avg 2 h Coupled Exchange IC50 [2]: 2 nM
IC50 [3]: 6 nM
IC50 [4]: 19 nM

Structure (SMILES): Oc1cc(Cl)c(C2CC2)c(-c2c(F)cc3c(N4C[C@H]5CC[C@@H](C4)N5)nc(OC[C@@]45CCCN4C[C@H](F)C5)nc3c2F)c1 [Example 144, 3-(4-((1R,5S)-3,8-diazabicyclo[3.2.1]octan-3-yl)-6,8-difluoro-2-(((2R,7aS)-2-fluorotetrahydro-1H-pyrrolizin-7a(5H)-yl)methoxy)quinazolin-7-yl)-5-chloro-4-cyclopropylphenol]
IC50 [1]: 3 nM
Avg 2 h Coupled Exchange IC50 [2]: 3 nM
IC50 [3]: 23 nM
IC50 [4]: 41 nM

Structure (SMILES): Oc1cc(Cl)c(C2CC2)c(-c2ccc3c(N4C[C@H]5CC[C@@H](C4)N5)nc(OC[C@@]45CCCN4C[C@H](F)C5)nc3c2F)c1 [Example 145, 3-(4-((1R,5S)-3,8-diazabicyclo[3.2.1]octan-3-yl)-8-fluoro-2-(((2R,7aS)-2-fluorotetrahydro-1H-pyrrolizin-7a(5H)-yl)methoxy)quinazolin-7-yl)-5-chloro-4-cyclopropylphenol]
IC50 [1]: 2 nM
Avg 2 h Coupled Exchange IC50 [2]: 3 nM
IC50 [3]: 11 nM
IC50 [4]: 39 nM

Structure (SMILES): CCc1c(F)ccc2cc(O)cc(-c3ccc4c(N5[C@@H]6CC[C@H]5CNC6)nc(OC[C@@]56CCCN5C[C@H](F)C6)nc4c3F)c12 [Example 146, 4-(4-((1R,5S)-3,8-diazabicyclo[3.2.1]octan-8-yl)-8-fluoro-2-(((2R,7aS)-2-fluorotetrahydro-1H-pyrrolizin-7a(5H)-yl)methoxy)quinazolin-7-yl)-5-ethyl-6-fluoronaphthalen-2-ol]
IC50 [1]: 1 nM
Avg 2 h Coupled Exchange IC50 [2]: 3 nM
IC50 [3]: 83 nM
IC50 [4]: 129 nM

Structure (SMILES): CCc1cccc2cc(O)cc(-c3c(F)cc4c(N5C[C@H]6CC[C@@H](C5)N6)nc(OC[C@@]56CCCN5C[C@H](F)C6)nc4c3F)c12 [Example 147, 4-(4-((1R,5S)-3,8-diazabicyclo[3.2.1]octan-3-yl)-6,8-difluoro-2-(((2R,7aS)-2-fluorotetrahydro-1H-pyrrolizin-7a(5H)-yl)methoxy)quinazolin-7-yl)-5-ethylnaphthalen-2-ol]
IC50 [1]: 3 nM
Avg 2 h Coupled Exchange IC50 [2]: 2 nM
IC50 [3]: 3 nM
IC50 [4]: 25 nM

Structure (SMILES): Oc1cc(-c2c(F)cc3c(N4[C@@H]5CC[C@H]4CNC5)nc(OC[C@@]45CCCN4C[C@H](F)C5)nc3c2F)c2c(F)c(F)ccc2c1 [Example 148, 4-(4-((1R,5S)-3,8-diazabicyclo[3.2.1]octan-8-yl)-6,8-difluoro-2-(((2R,7aS)-2-fluorotetrahydro-1H-pyrrolizin-7a(5H)-yl)methoxy)quinazolin-7-yl)-5,6-difluoronaphthalen-2-ol]
IC50 [1]: 2 nM
Avg 2 h Coupled Exchange IC50 [2]: 2 nM
IC50 [3]: 83 nM
IC50 [4]: 143 nM

Structure (SMILES): Cc1cccc(-c2c(F)cc3c(N4C[C@H]5CC[C@@H](C4)N5)nc(OC[C@@]45CCCN4C[C@H](F)C5)nc3c2F)c1C(F)(F)F [Example 149, 4-((1R,5S)-3,8-diazabicyclo[3.2.1]octan-3-yl)-6,8-difluoro-2-(((2R,7aS)-2-fluorotetrahydro-1H-pyrrolizin-7a(5H)-yl)methoxy)-7-(3-methyl-2-(trifluoromethyl)phenyl)quinazoline]
IC50 [1]: 5 nM
Avg 2 h Coupled Exchange IC50 [2]: 2 nM
IC50 [3]: 939 nM
IC50 [4]: 680 nM

Structure (SMILES): CCc1c(F)ccc2cc(O)cc(-c3c(F)cc4c(N5[C@@H]6CC[C@H]5CNC6)nc(OC[C@@]56CCCN5C[C@H](F)C6)nc4c3F)c12 [Example 150, 4-(4-((1R,5S)-3,8-diazabicyclo[3.2.1]octan-8-yl)-6,8-difluoro-2-(((2R,7aS)-2-fluorotetrahydro-1H-pyrrolizin-7a(5H)-yl)methoxy)quinazolin-7-yl)-5-ethyl-6-fluoronaphthalen-2-ol]
IC50 [1]: 3 nM
Avg 2 h Coupled Exchange IC50 [2]: 3 nM
IC50 [3]: 30 nM
IC50 [4]: 94 nM

Structure (SMILES): CCc1c(F)ccc2cc(O)cc(-c3c(F)cc4c(N5[C@@H]6CNC[C@H]5COC6)nc(OC[C@@]56CCCN5C[C@H](F)C6)nc4c3F)c12 [Example 151, 4-(4-((1R,5S)-3-oxa-7,9-diazabicyclo[3.3.1]nonan-9-yl)-6,8-difluoro-2-(((2R,7aS)-2-fluorotetrahydro-1H-pyrrolizin-7a(5H)-yl)methoxy)quinazolin-7-yl)-5-ethyl-6-fluoronaphthalen-2-ol]
IC50 [1]: 4 nM
Avg 2 h Coupled Exchange IC50 [2]: 3 nM
IC50 [3]: 65 nM
IC50 [4]: 123 nM

Structure (SMILES): CCc1c(F)ccc2cc(O)cc(-c3ccc4c(N5[C@@H]6CNC[C@H]5COC6)nc(OC[C@@]56CCCN5C[C@H](F)C6)nc4c3F)c12 [Example 152, 4-(4-((1R,5S)-3-oxa-7,9-diazabicyclo[3.3.1]nonan-9-yl)-8-fluoro-2-(((2R,7aS)-2-fluorotetrahydro-1H-pyrrolizin-7a(5H)-yl)methoxy)quinazolin-7-yl)-5-ethyl-6-fluoronaphthalen-2-ol]
IC50 [1]: 5 nM
Avg 2 h Coupled Exchange IC50 [2]: 4 nM
IC50 [3]: 73 nM
IC50 [4]: 76 nM

Structure (SMILES): CCc1c(F)ccc2cc(O)cc(-c3c(F)cc4c(N5CCC6CCC(C5)N6)nc(OC[C@@]56CCCN5C[C@H](F)C6)nc4c3F)c12 (stereo partly drawn) [Example 153, 4-(4-(3,9-diazabicyclo[4.2.1]nonan-3-yl)-6,8-difluoro-2-(((2R,7aS)-2-fluorotetrahydro-1H-pyrrolizin-7a(5H)-yl)methoxy)quinazolin-7-yl)-5-ethyl-6-fluoronaphthalen-2-ol]
IC50 [1]: 6 nM
Avg 2 h Coupled Exchange IC50 [2]: 3 nM
IC50 [3]: 349 nM
IC50 [4]: 419 nM

Structure (SMILES): CCc1cccc2cc(O)cc(-c3ccc4c(N5CCC6CCC(C5)N6)nc(OC[C@@]56CCCN5C[C@H](F)C6)nc4c3F)c12 (stereo partly drawn) [Example 154, 4-(4-(3,9-diazabicyclo[4.2.1]nonan-3-yl)-8-fluoro-2-(((2R,7aS)-2-fluorotetrahydro-1H-pyrrolizin-7a(5H)-yl)methoxy)quinazolin-7-yl)-5-ethylnaphthalen-2-ol]
IC50 [1]: 13 nM
Avg 2 h Coupled Exchange IC50 [2]: 12 nM
IC50 [3]: 879 nM
IC50 [4]: 1030 nM

Structure (SMILES): Fc1cc2c(N3C[C@H]4CC[C@@H](C3)N4)nc(OC[C@@]34CCCN3C[C@H](F)C4)nc2c(F)c1-c1cccc2ccc(F)c(F)c12 [Example 155, 4-((1R,5S)-3,8-diazabicyclo[3.2.1]octan-3-yl)-7-(7,8-difluoronaphthalen-1-yl)-6,8-difluoro-2-(((2R,7aS)-2-fluorotetrahydro-1H-pyrrolizin-7a(5H)-yl)methoxy) quinazoline]
IC50 [1]: 5 nM
Avg 2 h Coupled Exchange IC50 [2]: 3 nM
IC50 [3]: 639 nM
IC50 [4]: 667 nM
